This note sets out measurements from ChEMBL document CHEMBL3407344, “Computer-guided drug repurposing: identification of trypanocidal activity of clofazimine, benidipine and saquinavir” (Eur J Med Chem, 2015).

Data set [1] has as its target Cruzipain (Trypanosoma cruzi) (UniProt P25779). Briefly: Inhibition of Trypanosoma cruzi cruzaine at 100 uM using mMBz-Pro-Phe-Arg-pNA substrate incubated for 5 mins by UV-vis spectrophotometry.
Data set [2] concerns Trypanosoma cruzi. The data set is described as follows: Trypanocidal activity against GFP expressing Trypanosoma cruzi Y C57BL/6J mouse acute model of trypanosomal infection assessed as reduction in parasitemia at 100 mg/kg/day, ip measured at 10,14 and 20 days post infection. It counts as functional, organism-based.
The subject of data set [3] is Trypanosoma cruzi. The data set is described as follows: Trypanocidal activity against GFP expressing Trypanosoma cruzi Y C57BL/6J mouse acute model of trypanosomal infection assessed as reduction in cardiac amastigote nests counts at 100 mg/kg/day, ip measured at 10,14 and 20 days post infection by HE staining based conventional microscopy. It counts as functional, organism-based.

Data set [4] deals with Cruzipain (Trypanosoma cruzi) (UniProt P25779). The data set is described as follows: Inhibition of Trypanosoma cruzi cruzaine using mMBz-Pro-Phe-Arg-pNA substrate incubated for 5 mins by UV-vis spectrophotometry.
The subject of data set [5] is Trypanosoma cruzi. Briefly: Trypanocidal activity against GFP expressing Trypanosoma cruzi Y epimastigotes assessed as inhibition of parasite proliferation at 1 uM to 20 uM and measured after 4 days by hemocytometry based cell counting method. Type of data set: functional. The following applies: 96 h.
Data set [6] concerns Trypanosoma cruzi. Briefly: Trypanocidal activity against GFP expressing Trypanosoma cruzi Y epimastigotes assessed as effect on parasite morphology at 1 uM to 20 uM measured after 1 to 3 days by hemocytometry based cell counting method. It counts as functional, organism-based.
Data set [7] relates to Trypanosoma cruzi. The data set is described as follows: Trypanocidal activity against GFP expressing Trypanosoma cruzi Y epimastigotes assessed as effect on parasite motility at 1 uM to 20 uM measured after 1 to 3 days by hemocytometry based cell counting method. It counts as functional, organism-based.
The subject of data set [8] is Trypanosoma cruzi. The data set is described as follows: Trypanocidal activity against GFP expressing Trypanosoma cruzi Y epimastigotes in rat H9C2 cell monolayers for 12 hrs infected with 30 mins compound pre-treated parasite obtained from infected African green monkey Vero cells assessed as reduction in cell invasion at 2.5 uM measured after 48 hrs by confocal microscopy. Type of data set: functional.

Data set [9] deals with Trypanosoma cruzi. Briefly: Trypanocidal activity against GFP expressing Trypanosoma cruzi Y epimastigotes in rat H9C2 cell monolayers for 12 hrs infected with 30 mins compound pre-treated parasite obtained from infected African green monkey Vero cells assessed as reduction in parasite count at 2.5 uM measured after 48 hrs by confocal microscopy. Type of data set: functional, organism-based.

The test system of data set [10] is Trypanosoma cruzi. Briefly: Trypanocidal activity against GFP expressing Trypanosoma cruzi Y epimastigotes in rat H9C2 cell monolayers for 24 hrs infected with 30 mins compound pre-treated parasite obtained from infected African green monkey Vero cells assessed as reduction in parasite count at 2.5 uM measured after 96 hrs by confocal microscopy. It counts as functional, organism-based.

The test system of data set [11] is H9c2. The data set is described as follows: Cytotoxicity against rat H9c2 cells assessed as effect on metabolic activity at 2.5 uM by alamar blue assay. Type of data set: ADME, cell-based. The following applies: h9c2, 2.5 µM. On the technique in general: Alamar Blue is a resazurin reagent that responds to reducing activity.
Data set [12] deals with Trypanosoma cruzi. Briefly: Trypanocidal activity against GFP expressing Trypanosoma cruzi Y C57BL/6J mouse acute model of trypanosomal infection assessed as reduction in parasitemia at 10 mg/kg/day, ip measured at 10,14 and 20 days post infection. It counts as functional. The following applies: route intraperitoneal.
Data set [13] is described as follows: Toxicity in orally dosed mouse. It counts as organism-based. The following applies: in vivo, po.
In data set [14] the test system is Trypanosoma cruzi. The data set is described as follows: Trypanocidal activity against GFP expressing Trypanosoma cruzi Y epimastigotes in rat H9C2 cell monolayers for 24 hrs infected with 30 mins compound pre-treated parasite obtained from infected African green monkey Vero cells assessed as reduction in parasite count at 5 uM measured after 96 hrs by confocal microscopy. Type of data set: functional, organism-based.

Data set [15] relates to Trypanosoma cruzi. The data set is described as follows: Trypanocidal activity against GFP expressing Trypanosoma cruzi Y epimastigotes assessed as inhibition of parasite proliferation at 20 uM measured after few hrs by hemocytometry based cell counting method. It counts as functional, organism-based.
In data set [16] the test system is Trypanosoma cruzi. Briefly: Trypanocidal activity against GFP expressing Trypanosoma cruzi Y epimastigotes in rat H9C2 cell monolayers for 12 hrs infected with 30 mins compound pre-treated parasite obtained from infected African green monkey Vero cells assessed as reduction in parasite count at 5 uM measured after 48 hrs by confocal microscopy. Type of data set: functional, organism-based.

The subject of data set [17] is Trypanosoma cruzi. The data set is described as follows: Trypanocidal activity against GFP expressing Trypanosoma cruzi Y epimastigotes in rat H9C2 cell monolayers for 12 hrs infected with 30 mins compound pre-treated parasite obtained from infected African green monkey Vero cells assessed as reduction in cell invasion at 5 uM measured after 48 hrs by confocal microscopy. Type of data set: functional.

Data set [18] concerns H9c2. Briefly: Cytotoxicity against rat H9c2 cells assessed as effect on metabolic activity at 5 uM by alamar blue assay. Type of data set: ADME, cell-based. The following applies: h9c2, 5 µM.
A further data set deals with Plasma. The data set is described as follows: Plasma concentration in leprosy patient at […], po dosed daily. Type of data set: ADME, organism-based. The following applies: human, in vivo. Set-up: route oral.
Data set [19] has as its system Trypanosoma cruzi. The data set is described as follows: Trypanocidal activity against GFP expressing Trypanosoma cruzi Y C57BL/6J mouse acute model of trypanosomal infection assessed as reduction in parasitemia at 20 mg/kg/day, ip measured at 10,14 and 20 days post infection. The following applies: route intraperitoneal. Type of data set: functional.
Data set [20] has as its system Trypanosoma cruzi. Briefly: Trypanocidal activity against GFP expressing Trypanosoma cruzi Y C57BL/6J mouse acute model of trypanosomal infection assessed as reduction in cardiac amastigote nests counts at 20 mg/kg/day, ip measured at 10,14 and 20 days post infection by HE staining based conventional microscopy. Type of data set: functional, organism-based.
The test system of data set [21] is Trypanosoma cruzi. The data set is described as follows: Trypanocidal activity against GFP expressing Trypanosoma cruzi Y epimastigotes assessed as inhibition of parasite proliferation at 1 uM to 20 uM and measured during stationary phase by hemocytometry based cell counting method. Type of data set: functional, organism-based.
For data set [22], the system named is Trypanosoma cruzi. Briefly: Trypanocidal activity against GFP expressing Trypanosoma cruzi Y epimastigotes in rat H9C2 cell monolayers for 12 hrs infected with 30 mins compound pre-treated parasite obtained from infected African green monkey Vero cells assessed as reduction in cell invasion at 10 uM measured after 48 hrs by confocal microscopy. Type of data set: functional.

Data set [23] deals with Trypanosoma cruzi. Briefly: Trypanocidal activity against GFP expressing Trypanosoma cruzi Y epimastigotes in rat H9C2 cell monolayers for 12 hrs infected with 30 mins compound pre-treated parasite obtained from infected African green monkey Vero cells assessed as reduction in parasite count at 10 uM measured after 48 hrs by confocal microscopy. Type of data set: functional, organism-based.

Data set [24] relates to Trypanosoma cruzi. The data set is described as follows: Trypanocidal activity against GFP expressing Trypanosoma cruzi Y epimastigotes in rat H9C2 cell monolayers for 24 hrs infected with 30 mins compound pre-treated parasite obtained from infected African green monkey Vero cells assessed as reduction in parasite count at 10 uM measured after 96 hrs by confocal microscopy. It counts as functional, organism-based.

The subject of data set [25] is H9c2. Briefly: Cytotoxicity against rat H9c2 cells assessed as effect on metabolic activity at 10 uM by alamar blue assay. Type of data set: ADME, cell-based. The following applies: h9c2, 10 µM.

Structures are written as SMILES. Calls of active or inactive are those of the source. The rule behind the calls is not given here.

Chain of Cruzipain (Trypanosoma cruzi) (P25779 123-467 limits assumed): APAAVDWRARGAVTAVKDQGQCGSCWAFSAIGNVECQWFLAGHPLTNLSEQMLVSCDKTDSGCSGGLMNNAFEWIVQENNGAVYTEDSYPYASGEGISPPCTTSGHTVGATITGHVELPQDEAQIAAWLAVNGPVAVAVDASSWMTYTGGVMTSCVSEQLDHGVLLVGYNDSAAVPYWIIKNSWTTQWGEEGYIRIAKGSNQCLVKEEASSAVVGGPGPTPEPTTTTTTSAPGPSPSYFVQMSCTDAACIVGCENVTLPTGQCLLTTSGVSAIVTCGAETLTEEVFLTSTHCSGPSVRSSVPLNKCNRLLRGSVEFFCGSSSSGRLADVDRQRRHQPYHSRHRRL

Take `COc1ccc(CCN(C)CCCC(C#N)(c2ccc(OC)c(OC)c2)C(C)C)cc1OC` (configuration not stated): the inhibition result in data set [1] is “inactive”.
Regarding `O=C(Cn1ccnc1[N+](=O)[O-])NCc1ccccc1`, the inhibition result in the data set with Trypanosoma cruzi [2] and in the data set with Trypanosoma cruzi [3] was “Active” throughout.
Usually LC50 stands for the concentration that kills 50% of the test population. What is called inhibition in vivo is the percentage by which the read-out fell short of the control. Broadly, the LD50 is the dose expected to kill half of the subjects tested. Take `COC(=O)C1=C(C)NC(C)=C(C(=O)OC2CCCN(Cc3ccccc3)C2)C1c1cccc([N+](=O)[O-])c1` (configuration not stated) [BENIDIPINE]: the inhibition result in data set [1] is “Active”. Also, the inhibition entry in [4] was “Dose-dependent effect”. Besides, the median lethal concentration (LC50) with Trypanosoma cruzi [5] was found to be 19.5 µM. Besides, the result in the data set with Trypanosoma cruzi [6], in the data set with Trypanosoma cruzi [7], in the data set with Trypanosoma cruzi [9] and in the data set on Trypanosoma cruzi [10] was Active. In addition, in the data set with Trypanosoma cruzi [8], the “fold change (FC)” value amounted to 3. The Activity result in the data set on H9c2 [11] is reported as “Non-toxic”. In addition, the inhibition in vivo at 10 mg/kg/day in the data set with Trypanosoma cruzi [12] was 40%. In data set [13], this compound displayed an LD50 of more than 300 mg/kg.
On to `CC(C)/N=c1\cc2n(-c3ccc(Cl)cc3)c3ccccc3nc-2cc1Nc1ccc(Cl)cc1` [CLOFAZIMINE], for which the inhibition result (in [1]; in the data set on Trypanosoma cruzi [15]; in the data set with Trypanosoma cruzi [20]) was “Active” in each case. The inhibition result in data set [4] was “Dose-dependent effect”. Further, the outcome in the data set with Trypanosoma cruzi [14], in the data set with Trypanosoma cruzi [6], with Trypanosoma cruzi [7] and with Trypanosoma cruzi [16] was Active. Moreover, in the data set with Trypanosoma cruzi [5], the LC50 amounted to 10.6 µM. Also, the “fold change (FC)” value with Trypanosoma cruzi [17] was found to be 3. The Activity result in the data set with H9c2 [18] is “Non-toxic”. This compound also showed a concentration in the data set with Plasma of 2100 nM. In addition, the inhibition in vivo at 20 mg/kg/day with Trypanosoma cruzi [19] was found to be 40%. This compound had an LD50 in data set [13] of 5000 mg/kg.
With `CC(C)(C)NC(=O)[C@@H]1C[C@@H]2CCCC[C@@H]2CN1C[C@@H](O)[C@H](Cc1ccccc1)NC(=O)[C@H](CC(N)=O)NC(=O)c1ccc2ccccc2n1` [SAQUINAVIR], the inhibition result (in [1]; in the data set on Trypanosoma cruzi [21]) was “Active” each time. Further, the inhibition result in data set [4] is “Dose-dependent effect”. The result in the data set on Trypanosoma cruzi [6], in the data set on Trypanosoma cruzi [7], with Trypanosoma cruzi [23] and in the data set on Trypanosoma cruzi [24] was Active. In the data set on Trypanosoma cruzi [22], the “fold change (FC)” value is on record as 3. For the same compound, the Activity entry in the data set on H9c2 [25] is “Non-toxic”.
